Data on 26 compounds can be found in patent US20260256751A1, “COMBINATION OF BETA-2-ADRENERGIC RECEPTOR AGONISTS AND GLP-1 RECEPTOR AGONISTS FOR USE IN TREATING HYPERGLYCAEMIA” (ATROGI AB, priority 2023, published 2026).

The test system of assay [1] is differentiated L6-myotubes. Briefly: cAMP production relative to isoprenaline (Biological example 2 of WO 2019/053427). The assay is classed as cell-based. The settings on record: 0.25 h, compound at 10 μM, activity relative to isoproterenol at 10 μM. The gist of the method: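 Differentiated L6 myotubes stimulated 15 min with test compound or isoprenaline, each at final 1×10^−5 M, in HBSS with 1% BSA, 5 mM HEPES, 1 mM IBMX, pH 7.4. cAMP production by the compound expressed relative to that induced by the same concentration of isoprenaline.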

For assay [2], the system named is differentiated L6-myotubes. Briefly: Glucose uptake screen (Biological example 1 of WO 2019/053427). In kind it is cell-based. The settings on record: compound at 10 μM, activity relative to isoproterenol at 10 μM, read-out: Biological example 1 of WO 2019/053427 (GU). The gist of the method:
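Rat L6 myoblasts were differentiated into myotubes over 7 days in 2% FBS, then serum-starved overnight. Cells were stimulated with 1×10^−5 M compound plus β2 antagonist ICI-118551 for 1 h 40 min and re-dosed for 20 min in glucose-free medium. Uptake of 50 nM ^3H-2-deoxyglucose over 10 min was counted after NaOH lysis.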

Some results are limits rather than exact numbers.

On to `O[C@H](c1cccc(F)c1)C12CCC(Cc3ccccc3)(CC1)N2` [Compound 388, (R)-(4-benzyl-7-azabicyclo[2.2.1]hept-1-yl)(m-fluorophenyl)methanol], for which the Emax at 10 µM in assay [1] was 25 to 50%; in assay [2], over 75%.

With `CC(C)(C[C@H]1CC[C@H](S(N)(=O)=O)CC1)NC[C@H](O)c1cccc(F)c1` [Compound 516, (1R,4r)-4-{2-[(R)-2-(m-fluorophenyl)-2-hydroxyethylamino]-2-methylpropyl}cyclohexanesulfonamide], the figures for the Emax at 10 µM in assay [1] and in assay [2] were under 25% and over 75%, respectively.

For the compound `CC(C)(C[C@H]1CC[C@H](N)CC1)NC[C@H](O)c1cccc(C#N)n1` [Compound 417, 6-[(S)-2-{1,1-dimethyl-2-[(1r,4S)-4-aminocyclohexyl]ethylamino}-1-hydroxyethyl]-2-pyridinecarbontirile], the figures for the Emax at 10 µM in assay [1] and in assay [2] were 25 to 50% and over 75%, respectively.

For `CCCCNC[C@H](O)c1ccnc(N)n1` [Compound 73, (S)-1-(2-amino-4-pyrimidinyl)-2-(butylamino)-1-ethanol], the figures for the Emax at 10 µM in assay [1] and in assay [2] were under 25% and 25 to 50%, respectively.

As for `CC(=O)N[C@H]1CC[C@H](CCC(C)(C)NC[C@H](O)c2cncc(F)c2)CC1` [Compound 361, N-[(1R,4r)-4-{3-[(R)-2-(5-fluoro-3-pyridyl)-2-hydroxyethylamino]-3-methlbutyl}cyclohexyl]acetamide], the results for the Emax at 10 µM in assay [1] and in assay [2] were under 25% and over 75%, respectively.

`CCCC(C)(C)NC[C@H](O)c1cccc(F)c1` [Compound 61, (R)-2-(1,1-dimethylbutylamino)-1-(m-fluorophenyl)-1-ethanol]: the Emax at 10 µM was under 25% in assay [1] and over 75% in assay [2].

`CC1(C)CC[C@H]([C@@H](O)c2cccc(Cl)c2)N1` [Compound 153, (S)-[(R)-5,5-dimethyl-2-pyrrolidinyl](m-chlorophenyl)methanol]: the Emax at 10 µM in assay [1] was under 25%; in assay [2], 25 to 50%.

Take `CC12CC(C1)[C@H]([C@H](O)c1ccccc1F)N2` [Compound 210, (R)-{(R)-1-methyl-2-azabicyclo[2.1.1]hex-3-yl}(o-fluorophenyl)methanol]: the Emax at 10 µM in assay [1] and in assay [2] was over 75% in each case.

Regarding `CC(C)(C)NC[C@H](O)c1cccc(C#N)n1` [Compound 387, 6-[(S)-2-(tert-butylamino)-1-hydroxyethyl]-2-pyridinecarbonitrile], the values for the Emax at 10 µM in assay [1] and in assay [2] were 25 to 50% and over 75%, respectively.

In the case of `CC(=O)N[C@H]1CC[C@@H](CC(C)(C)NC[C@H](O)c2cncc(F)c2)CC1` [Compound 467, N-[(1S,4s)-4-{2-[(R)-2-(5-fluoro-3-pyridyl)-2-hydroxyethylamino]-2-methylpropyl}cyclohexyl]acetamide], the Emax at 10 µM in assay [1] is under 25%; in assay [2] it was over 75%.

On to `CC12CC(C1)[C@@H]([C@H](O)c1ccccc1F)N2` [Compound 213, (R)-{(S)-1-methyl-2-azabicyclo[2.1.1]hex-3-yl}(o-fluorophenyl)methanol], for which the values for the Emax at 10 µM in assay [1] and in assay [2] were under 25% and over 75%, respectively.

Take `CCC[C@H]1CCC[C@H]([C@@H](O)c2ccc(F)c(F)c2)N1` [Compound 65, (S)-[(2R,6S)-6-propyl-2-piperidyl](3,4-difluorophenyl)methanol]: the Emax at 10 µM is under 25% in assay [1] and 25 to 50% in assay [2].

Turning to `CC(C)(CC[C@H]1CC[C@H](NS(C)(=O)=O)CC1)NC[C@H](O)c1cncc(F)c1` [Compound 362, (R)-2-{1,1-dimethyl-3-[(1r,4R)-4-(mesylamino)cyclohexyl]propylamino}-1-(5-fluoro-3-pyridyl)-1-ethanol], the Emax at 10 µM is under 25% in assay [1] and 50 to 75% in assay [2].

In the case of `CO[C@H]1CC[C@H](C(C)(C)NC[C@H](O)c2cccc(F)c2)CC1` [Compound 239, (R)-1-(m-fluorophenyl)-2-{1-methyl-1-[(1r,4R)-4-methoxycyclohexyl]ethyl-amino}-1-ethanol], the Emax at 10 µM in assay [1] is under 25%; in assay [2], over 75%.

As to `CCC[C@H]1CCC[C@H]([C@H](O)c2ccc(F)cc2)N1` [Compound 92, (R)-[(2R,6S)-6-propyl-2-piperidyl](p-fluorophenyl)methanol], the Emax at 10 µM was under 25% in assay [1] and 25 to 50% in assay [2].

In the case of `CC(C)(C)NC[C@H](O)c1ccc(F)c(O)c1` [Compound 84, (R)-2-(tert-butylamino)-1-(4-fluoro-3-hydroxyphenyl)-1-ethanol], the Emax at 10 µM was 50 to 75% in assay [1] and over 75% in assay [2].

In the case of `CS(=O)(=O)N(Cc1ccccc1)CC12CCC([C@H](O)c3cccc(F)c3)(CC1)N2` [Compound 537, (R)-(4-{[(benzyl)-N-mesylamino]methyl}-7-azabicyclo[2.2.1]hept-1-yl)(m-fluorophenyl)methanol], the figures for the Emax at 10 µM in assay [1] and in assay [2] were 25 to 50% and 50 to 75%, respectively.

Turning to `CCCCNC[C@H](O)c1csc(N)n1` [Compound 71, (S)-1-(2-amino-1,3-thiazol-4-yl)-2-(butylamino)-1-ethanol], the Emax at 10 µM in assay [1] is under 25%; in assay [2] it was 25 to 50%.

Take `CC(C)(C[C@H]1CC[C@@H](N)CC1)NC[C@H](O)c1cncc(F)c1` [Compound 466, (R)-2-{1,1-dimethyl-2-[(1s,4S)-4-aminocyclohexyl]ethylamino}-1-(5-fluoro-3-pyridyl)-1-ethanol]: the Emax at 10 µM in assay [1] was under 25%; in assay [2], 50 to 75%.

Take `CCCCNC[C@H](O)c1cnc(NC(=O)C(C)C)nc1` [Compound 88, N-{5-[(R)-2-(butylamino)-1-hydroxyethyl]-2-pyrimidinyl}2-methylpropionamide]: the results for the Emax at 10 µM in assay [1] and in assay [2] were under 25% and 50 to 75%, respectively.

Turning to `CC1(C)CC[C@H]([C@@H](O)c2cccc(F)c2)N1` [Compound 109, (S)-[(R)-5,5-dimethyl-2-pyrrolidinyl](m-fluorophenyl)methanol], the values for the Emax at 10 µM in assay [1] and in assay [2] were under 25% and 25 to 50%, respectively.

On to `CC(C)(C)NC[C@H](O)c1cncc(F)c1` [Compound 99, (R)-2-(tert-butylamino)-1-(5-fluoro-3-pyridyl)-1-ethanol], for which the figures for the Emax at 10 µM in assay [1] and in assay [2] were 25 to 50% and over 75%, respectively.

Consider `CC(=O)N[C@H]1CC[C@@H](CNC[C@H](O)c2cccc(F)c2)CC1` [Compound 307, N-[(1S,4s)-4-{[(R)-2-(m-fluorophenyl)-2-hydroxyethylamino]methyl}cyclohexyl]acetamide], for which the Emax at 10 µM is under 25% in assay [1] and 50 to 75% in assay [2].

Regarding `O[C@@H](c1cccc(F)c1)[C@H]1CCC2(CCCC2)N1` [Compound 169, (S)-{(R)-1-aza-2-spiro[4.4]nonyl}(m-fluorophenyl)methanol], the Emax at 10 µM in assay [1] and in assay [2] was under 25% in each case.

Regarding `CC(C)(C[C@H]1CC[C@H](S(N)(=O)=O)CC1)NC[C@H](O)c1cncc(F)c1` [Compound 518, (1R,4r)-4-{2-[(R)-2-(5-fluoro-3-pyridyl)-2-hydroxyethylamino]-2-methylpropyl}cyclohexanesulfonamide], the Emax at 10 µM in assay [1] is under 25%; in assay [2], 50 to 75%.

In the case of `CCCCNCC(O)c1cccnc1` (stereo not shown) [Compound 49, 2-(butylamino)-1-(3-pyridyl)-1-ethanol], the Emax at 10 µM in assay [1] is under 25%; in assay [2], 50 to 75%.
